Here are results for 3 compounds from patent US5798359A, “Piperazino derivatives as neurokinin antagonists” (Schering Corporation, priority 1995, dated 1998).

Each structure is given as a SMILES string. pKi: −log10 of the molar value.

For experiment [1], the target named is T1, human neurokinin 1 (NK1) receptor (Homo sapiens, UniProt P25103).
T1 construct: expressed in transfected cells; host or cells: Chinese hamster ovary (CHO) cells, G418 medium; membranes
The experiment is described as follows: Neurokinin NK1 receptor binding assay ([3H]-Substance P, CHO cell membranes). The note with it: for pKi: [3H]-Substance P 0.8 nM, Cheng and Prusoff. The procedure: (§1) Chinese Hamster ovary (CHO) cells transfected with the coding regions for the human neurokinin 1 (NK1) of the human neurokinin 2 (NK2) receptors are grown in Dulbecco's minimal essential medium supplemented with 10% fetal calf serum, 0.1 mM non-essential amino acids, 2 mM glutamine, 100 units/ml of penicillin and streptomycin, and 0.8 mg of G418/ml at 37° C. in a humidified atmosphere containing 5% CO2.
(§2) Cells are detached from T-175 flasks with a sterile solution containing 5 mM EDTA in phosphate buffered saline. Cells are harvested by centrifugation and washed in RPMI media at […] for 5 minutes. The pellet is resuspended in Tris-HCl (pH7.4) containing 1 uM phsphoramidon and 4 ug/ml of chymostatin at a cell density of 30×10^6 cells/ml. The suspension is then homogenized in a Brinkman Polytron (setting 5) for 30-45 seconds. The homogenate is centrifuged at 800×g for 5 min at […] to collect unbroken cells and nuclei. The supernatant is centrifuged in a Sorvall RC5C at 19,000 rpm ([…]) for 30 min at 4° C. The pellet is resuspended, an aliquot is removed for a protein determination (BCA) and washed again. The resulting pellet is stored at -80° C.
(§3) Binding is initiated by the addition of 100 μl of membrane (10-20 μg) containing the human NK-1 or NK-2 receptor in a final volume of 200 μl. After 40 minutes at room temperature, the reaction is stopped by rapid filtration onto Whatman GF/C filters which have been presoaked in 0.3% polyethylenimine. Filters are washed 2 times with 3 ml of 50 mM Tris-HCl (pH7.4). Filters are added to 6 mls of Ready-Safe liquid scintillation cocktail and quantified by liquid scintillation spectrometry in a LKB 1219 RackBeta counter. Non-specific binding is determined by the addition of either 1 μM of CP-99994 (NK1) or 1 μM SR-48968 (NK2) (both synthesized by the chemistry department of Schering-Plough Research Institute).

Experiment [2] deals with T2, human neurokinin 2 (NK2) receptor (Homo sapiens, UniProt P21452).
T2 construct: expressed in transfected cells; host or cells: Chinese hamster ovary (CHO) cells, G418 medium; membranes
T2 sequence (P21452 1-398): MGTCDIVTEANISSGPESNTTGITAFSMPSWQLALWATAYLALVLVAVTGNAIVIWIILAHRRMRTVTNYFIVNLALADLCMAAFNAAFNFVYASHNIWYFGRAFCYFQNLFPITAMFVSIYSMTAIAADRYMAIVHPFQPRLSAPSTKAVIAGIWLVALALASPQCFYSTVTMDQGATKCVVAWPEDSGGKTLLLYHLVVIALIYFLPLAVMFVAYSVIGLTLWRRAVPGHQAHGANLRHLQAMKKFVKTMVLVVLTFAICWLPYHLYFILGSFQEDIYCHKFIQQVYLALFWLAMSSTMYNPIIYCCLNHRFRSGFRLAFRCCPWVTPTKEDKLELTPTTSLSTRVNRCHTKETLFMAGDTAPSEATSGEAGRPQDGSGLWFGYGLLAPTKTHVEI
Nature of the experiment: Neurokinin NK2 receptor binding assay ([3H]-Neurokinin A, CHO cell membranes). The note with it: for inhibition at 1 µM: 1 μM concentration. The procedure: as §1, §2, §3

T1 sequence (P25103 whole entry): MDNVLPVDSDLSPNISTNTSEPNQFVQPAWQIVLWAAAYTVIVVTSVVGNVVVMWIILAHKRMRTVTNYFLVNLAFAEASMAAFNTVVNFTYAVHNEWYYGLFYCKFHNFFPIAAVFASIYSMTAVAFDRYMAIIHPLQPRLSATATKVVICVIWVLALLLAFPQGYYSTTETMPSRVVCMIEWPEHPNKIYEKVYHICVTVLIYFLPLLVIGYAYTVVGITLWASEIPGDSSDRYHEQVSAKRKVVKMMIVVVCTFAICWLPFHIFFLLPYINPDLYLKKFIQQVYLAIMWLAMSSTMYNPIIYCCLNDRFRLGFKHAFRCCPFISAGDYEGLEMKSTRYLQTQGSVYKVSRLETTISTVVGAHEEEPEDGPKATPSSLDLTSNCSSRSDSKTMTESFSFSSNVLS

On to `COC1(C[S+]([O-])c2ccccc2)CCN(CC(=O)N2CCN(Cc3cc(C(F)(F)F)cc(C(F)(F)F)c3)CC2c2ccc(Cl)c(Cl)c2)CC1` (stereo not drawn), for which, in experiment [1], the pKi was 6.87. Also, testing at 1 µM in experiment [2] gave an inhibition of 24%.
`O=C(CNC1CCN(Cc2ccccc2)CC1)N1CCN(Cc2cccc(C(F)(F)F)c2)CC1c1ccc(Cl)c(Cl)c1` (stereo not drawn): the pKi in experiment [1] is 7.52; in experiment [2] ([3H]-Neurokinin A 1.0 nM, Cheng and Prusoff), 6.76.
In the case of `Cc1cccc(C)c1N1CCN(CC(=O)N2CCN(Cc3cc(C(F)(F)F)cc(C(F)(F)F)c3)CC2c2ccccc2)CC1` (stereo not drawn), the inhibition at 1 µM in experiment [1] (1 μM concentration) was determined as 48%; in experiment [2], 0%.
